Among the data in patent US20260248881A1, “PHARMACEUTICAL COMPOSITION COMPRISING FOXM1 INHIBITOR AND IMMUNE CHECKPOINT INHIBITOR FOR PREVENTING OR TREATING CANCER” (National Cancer Center, priority 2022, published 2026) are FOXM1 levels values, retold here.

The target in this test is T1, FOXM1 (Homo sapiens, UniProt Q08050).
T1 construct: host or cells: H1299 and PC9 cells
T1 sequence (Q08050 1-763): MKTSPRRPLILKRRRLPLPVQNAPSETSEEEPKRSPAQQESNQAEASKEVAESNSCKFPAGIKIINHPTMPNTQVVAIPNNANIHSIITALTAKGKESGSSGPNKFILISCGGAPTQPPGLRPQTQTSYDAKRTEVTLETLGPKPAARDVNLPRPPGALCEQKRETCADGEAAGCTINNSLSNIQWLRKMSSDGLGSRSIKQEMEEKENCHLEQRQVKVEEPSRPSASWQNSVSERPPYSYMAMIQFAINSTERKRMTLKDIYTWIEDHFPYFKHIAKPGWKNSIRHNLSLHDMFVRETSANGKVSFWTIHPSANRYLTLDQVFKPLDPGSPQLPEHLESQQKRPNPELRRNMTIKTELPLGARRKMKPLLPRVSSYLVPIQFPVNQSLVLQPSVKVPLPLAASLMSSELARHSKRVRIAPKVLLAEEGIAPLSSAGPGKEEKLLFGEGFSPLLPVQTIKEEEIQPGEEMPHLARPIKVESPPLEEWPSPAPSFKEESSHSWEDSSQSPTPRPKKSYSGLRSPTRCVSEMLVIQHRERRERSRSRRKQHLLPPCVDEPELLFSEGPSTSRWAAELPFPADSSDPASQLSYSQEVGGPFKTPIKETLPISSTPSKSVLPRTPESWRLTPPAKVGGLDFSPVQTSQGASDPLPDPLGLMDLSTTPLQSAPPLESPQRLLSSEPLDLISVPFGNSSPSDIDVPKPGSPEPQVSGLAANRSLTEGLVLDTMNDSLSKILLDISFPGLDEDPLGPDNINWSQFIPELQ
In words: FOXM1 inhibitors tested in H1299 and PC9 cells (FOXM1 levels). In kind it is cell-based. As to the method:
H1299 and PC9 cells purchased from ATCC (Manassas, VA, USA) were cultured in RPMI-1640 medium (#10-040-CV; Corning, New York, NY, USA) supplemented with 10% […] (#35-010-CV; Corning) and penicillin-streptomycin antibiotic cocktail (#15240062; Thermo Fisher Scientific, Waltham, MA, USA) at 37° C. and 5% CO2.
Total RNA was extracted and purified using the RNeasy kit (#74004; QIAGEN) according to the manufacturer's protocol. Reverse transcription of mRNA was performed using a PrimeScript 1st Strand CDNA Synthesis Kit (#6110A; TaKaRa Bio, Otsu, Japan). Quantitative PCR was performed using primers specific for the CD274 and FOXM1 genes designed using Primer 3 software. A β-actin gene was used as an internal control group to normalize target gene expression.

As for thiostrepton [TST], the FOXM1 levels entry is on record as “the most effective inhibitor, significantly reducing FOXM1 levels”.
